From PubChem BioAssay (NCI)
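GI50 = concentration required for 50% inhibition of growth. TGI marks complete inhibition of growth.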

What was measured:
Experiment in all cases: inhibition of tumour cell growth, NCI panel, 384-well format
OVCAR-3 ovarian = system: OVCAR-3 ovarian
IGROV1 ovarian = system: IGROV1 ovarian
MDA-MB-435 melanoma = system: MDA-MB-435 melanoma
HCT-116 colon = system: HCT-116 colon
OVCAR-4 ovarian = system: OVCAR-4 ovarian
RPMI-8226 leukemia = system: RPMI-8226 leukemia
CAKI-1 renal = system: CAKI-1 renal
HOP-62 NSCLC = system: HOP-62 NSCLC
SK-MEL-28 melanoma = system: SK-MEL-28 melanoma
HCC-2998 colon = system: HCC-2998 colon
HCT-15 colon = system: HCT-15 colon
MALME-3M melanoma = system: MALME-3M melanoma
SNB-19 CNS = system: SNB-19 CNS
SW-620 colon = system: SW-620 colon
COLO 205 colon = system: COLO 205 colon
HOP-92 NSCLC = system: HOP-92 NSCLC
U251 glioblastoma = system: U251 glioblastoma
SR leukemia = system: SR leukemia
CCRF-CEM leukemia = system: CCRF-CEM leukemia
K-562 leukemia = system: K-562 leukemia
TK-10 renal = system: TK-10 renal
UO-31 renal = system: UO-31 renal
786-0 renal = system: 786-0 renal
SN12C renal = system: SN12C renal
ACHN renal = system: ACHN renal
A498 renal = system: A498 renal
OVCAR-8 ovarian = system: OVCAR-8 ovarian
OVCAR-5 ovarian = system: OVCAR-5 ovarian
SNB-75 CNS = system: SNB-75 CNS
DU-145 prostate = system: DU-145 prostate
NCI-H322M lung = system: NCI-H322M lung
NCI/ADR-RES ovarian = system: NCI/ADR-RES ovarian
NCI-H23 lung = system: NCI-H23 lung
MDA-MB-468 breast = system: MDA-MB-468 breast
SF-539 CNS = system: SF-539 CNS
HL-60(TB) leukemia = system: HL-60(TB) leukemia
EKVX NSCLC = system: EKVX NSCLC
MOLT-4 leukemia = system: MOLT-4 leukemia
SF-268 CNS = system: SF-268 CNS
M14 melanoma = system: M14 melanoma
HS 578T breast = system: HS 578T breast
KM12 colon = system: KM12 colon
SF-295 CNS = system: SF-295 CNS
SK-OV-3 ovarian = system: SK-OV-3 ovarian
SK-MEL-5 melanoma = system: SK-MEL-5 melanoma
RXF 393 renal = system: RXF 393 renal
NCI-H226 lung = system: NCI-H226 lung
BT-549 breast = system: BT-549 breast
MCF7 breast = system: MCF7 breast
NCI-H460 NSCLC = system: NCI-H460 NSCLC
LOX IMVI melanoma = system: LOX IMVI melanoma
T-47D breast = system: T-47D breast
PC-3 prostate = system: PC-3 prostate
MDA-MB-231 breast = system: MDA-MB-231 breast
NCI-H522 lung = system: NCI-H522 lung
A549 NSCLC = system: A549 NSCLC
HT29 colon = system: HT29 colon
UACC-257 melanoma = system: UACC-257 melanoma

CC(C)(C)c1[nH]cnc1/C=c1\[nH]c(=O)/c(=C/c2ccccc2)[nH]c1=O
GI50 (OVCAR-3 ovarian): < 10 nM
TGI (OVCAR-3 ovarian): < 10 nM
GI50 (IGROV1 ovarian): < 10 nM
TGI (IGROV1 ovarian): 10200 nM
GI50 (MDA-MB-435 melanoma): < 10 nM
TGI (MDA-MB-435 melanoma): < 10 nM
GI50 (HCT-116 colon): < 10 nM
TGI (HCT-116 colon): 39.3 nM
GI50 (OVCAR-4 ovarian): < 10 nM
TGI (OVCAR-4 ovarian): 3720 nM
GI50 (RPMI-8226 leukemia): < 10 nM
TGI (RPMI-8226 leukemia): < 10 nM
GI50 (CAKI-1 renal): < 10 nM
TGI (CAKI-1 renal): 13000 nM
GI50 (HOP-62 NSCLC): < 10 nM
TGI (HOP-62 NSCLC): 304 nM
GI50 (SK-MEL-28 melanoma): 1750 nM
TGI (SK-MEL-28 melanoma): 20400 nM
GI50 (HCC-2998 colon): < 10 nM
TGI (HCC-2998 colon): 22.1 nM
GI50 (HCT-15 colon): < 10 nM
TGI (HCT-15 colon): 22.5 nM
GI50 (MALME-3M melanoma): < 10 nM
TGI (MALME-3M melanoma): 16500 nM
GI50 (SNB-19 CNS): < 10 nM
TGI (SNB-19 CNS): 11000 nM
GI50 (SW-620 colon): < 10 nM
TGI (SW-620 colon): 17500 nM
GI50 (COLO 205 colon): < 10 nM
TGI (COLO 205 colon): < 10 nM
GI50 (HOP-92 NSCLC): < 10 nM
TGI (HOP-92 NSCLC): 2810 nM
GI50 (U251 glioblastoma): < 10 nM
TGI (U251 glioblastoma): 16.8 nM
GI50 (SR leukemia): < 10 nM
TGI (SR leukemia): < 10 nM
GI50 (CCRF-CEM leukemia): < 10 nM
TGI (CCRF-CEM leukemia): < 10 nM
GI50 (K-562 leukemia): < 10 nM
TGI (K-562 leukemia): < 10 nM
GI50 (TK-10 renal): < 10 nM
TGI (TK-10 renal): 16400 nM
GI50 (UO-31 renal): < 10 nM
TGI (UO-31 renal): 14500 nM
GI50 ([…]-0 renal): < 10 nM
TGI (786-0 renal): 27 nM
GI50 (SN12C renal): < 10 nM
TGI (SN12C renal): 4230 nM
GI50 (ACHN renal): < 10 nM
TGI (ACHN renal): 13300 nM
GI50 (A498 renal): < 10 nM
TGI (A498 renal): 265 nM
GI50 (OVCAR-8 ovarian): < 10 nM
TGI (OVCAR-8 ovarian): 15.9 nM
GI50 (OVCAR-5 ovarian): 10900 nM
TGI (OVCAR-5 ovarian): 32900 nM
GI50 (SNB-75 CNS): < 10 nM
TGI (SNB-75 CNS): 78.3 nM
GI50 (DU-145 prostate): < 10 nM
TGI (DU-145 prostate): 21.9 nM
GI50 (NCI-H322M lung): < 10 nM
TGI (NCI-H322M lung): 15200 nM
GI50 (NCI/ADR-RES ovarian): < 10 nM
TGI (NCI/ADR-RES ovarian): < 10 nM
GI50 (NCI-H23 lung): < 10 nM
TGI (NCI-H23 lung): < 10 nM
GI50 (MDA-MB-468 breast): 10.3 nM
TGI (MDA-MB-468 breast): 24.6 nM
GI50 (SF-539 CNS): < 10 nM
TGI (SF-539 CNS): < 10 nM
GI50 (HL-60(TB) leukemia): < 10 nM
TGI (HL-60(TB) leukemia): < 10 nM
GI50 (EKVX NSCLC): < 10 nM
TGI (EKVX NSCLC): 13000 nM
GI50 (MOLT-4 leukemia): < 10 nM
TGI (MOLT-4 leukemia): < 10 nM
GI50 (SF-268 CNS): < 10 nM
TGI (SF-268 CNS): 49.1 nM
GI50 (M14 melanoma): < 10 nM
TGI (M14 melanoma): < 10 nM
GI50 (HS 578T breast): < 10 nM
TGI (HS 578T breast): < 10 nM
GI50 (KM12 colon): < 10 nM
TGI (KM12 colon): 1250 nM
GI50 (SF-295 CNS): < 10 nM
TGI (SF-295 CNS): < 10 nM
GI50 (SK-OV-3 ovarian): < 10 nM
TGI (SK-OV-3 ovarian): 746 nM
GI50 (SK-MEL-5 melanoma): < 10 nM
TGI (SK-MEL-5 melanoma): < 10 nM
GI50 (RXF 393 renal): < 10 nM
TGI (RXF 393 renal): < 10 nM
GI50 (NCI-H226 lung): < 10 nM
TGI (NCI-H226 lung): 26.2 nM
GI50 (BT-549 breast): < 10 nM
TGI (BT-549 breast): 25.5 nM
GI50 (MCF7 breast): < 10 nM
TGI (MCF7 breast): 10300 nM
GI50 (NCI-H460 NSCLC): < 10 nM
TGI (NCI-H460 NSCLC): < 10 nM
GI50 (LOX IMVI melanoma): < 10 nM
TGI (LOX IMVI melanoma): 30.5 nM
GI50 (T-47D breast): < 10 nM
TGI (T-47D breast): 7150 nM
GI50 (PC-3 prostate): < 10 nM
TGI (PC-3 prostate): 14900 nM
GI50 (MDA-MB-231 breast): 10.7 nM
TGI (MDA-MB-231 breast): 19700 nM
GI50 (NCI-H522 lung): < 10 nM
TGI (NCI-H522 lung): < 10 nM
GI50 (A549 NSCLC): < 10 nM
TGI (A549 NSCLC): 16700 nM
GI50 (HT29 colon): < 10 nM
TGI (HT29 colon): 12900 nM
GI50 (UACC-257 melanoma): < 10 nM
TGI (UACC-257 melanoma): 18800 nM
